Test results published in patent publication US9884832B2 (priority 2011, dated 2018).

target: AM2 S31 (wild-type serine at position 31 in the M2 protein), influenza virus A/Udorn/72 (Influenza A virus, UniProt P0DOF5); experiment: cell-based; settings: 100 uM; Xenopus oocytes; activity range class; read-out: S31 OOcyte Inhibition at 100 uM (%)
Sequence (P0DOF5 whole entry, looked up): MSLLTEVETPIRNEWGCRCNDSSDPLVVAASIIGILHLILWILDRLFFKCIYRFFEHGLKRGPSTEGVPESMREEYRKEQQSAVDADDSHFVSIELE

For `C[Si](C)(C)c1ccc(CNC23CC4CC(CC(C4)C2)C3)cc1` [Example 6a, Adamantan-1-yl-(4-trimethylsilanyl-benzyl)-amine], which inhibition at 100 µM is on record?
The inhibition at 100 µM was 0 to 30%.

`Cn1cc(C(F)(F)F)c(-c2ccc(CNC34CC5CC(CC(C5)C3)C4)s2)n1` [Example 155a, N-((5-(1-methyl-4-(trifluoromethyl)-1H-pyrazol-3-yl)thiophen-2-yl)methyl)adamantan-1-amine] was tested. Which inhibition at 100 µM did it give?
The inhibition at 100 µM was 0 to 30%.

For `c1cc(C2CC2)ccc1CNC12CC3CC(CC(C3)C1)C2` [Example 9a, N-(4-Cyclopropylbenzyl)adamantan-1-amine], which inhibition at 100 µM is on record?
The inhibition at 100 µM was 31 to 95%.

How did the inhibition at 100 µM turn out when `Brc1ncc(CNC23CC4CC(CC(C4)C2)C3)s1` [Example 104a, N-((2-bromothiazol-5-yl)methyl)adamantan-1-amine] was run?
The inhibition at 100 µM was 0 to 30%.

For `CC(C)(C)c1nc(CNC23CC4CC(CC(C4)C2)C3)no1` [Example 103a, N-((5-(tert-butyl)-1,2,4-oxadiazol-3-yl)methyl)adamantan-1-amine], which inhibition at 100 µM is on record?
Its inhibition at 100 µM is 0 to 30%.

With `COc1ccc2cc(CNC34CC5CC(CC(C5)C3)C4)sc2c1` [Example 185a, N-((6-methoxybenzo[b]thiophen-2-yl)methyl)adamantan-1-amine] as the compound, how does the inhibition at 100 µM read?
The inhibition at 100 µM was 0 to 30%.

With `c1c(CNC23CC4CC(CC(C4)C2)C3)noc1CN1CCOCC1` [Example 106a, N-((5-(morpholinomethyl)isoxazol-3-yl)methyl)adamantan-1-amine] as the compound, how does the inhibition at 100 µM read?
The inhibition at 100 µM was 0 to 30%.

Which inhibition at 100 µM does the source give for `Cc1cc(CNC23CC4CC(CC(C4)C2)C3)no1` [Example 95a, N-((5-methylisoxazol-3-yl)methyl)adamantan-1-amine] here?
The inhibition at 100 µM was 31 to 95%.

For `C(NC12CC3CC(CC(C3)C1)C2)c1noc(C2CC2)n1` [Example 166a], which inhibition at 100 µM is on record?
Its inhibition at 100 µM is 0 to 30%.

How did the inhibition at 100 µM turn out when `C[Si](C)(C)c1ccc(CNC23CC4CC(CC(O)(C4)C2)C3)cc1` [Example 193a, (1s,3r,5R,7S)-3-((4-(trimethylsilyl)benzyl)amino)adamantan-1-ol] was run?
Its inhibition at 100 µM is 0 to 30%.

With `c1cc(C2CCCCC2)ccc1CNC12CC3CC(CC(C3)C1)C2` [Example 10a, Adamantan-1-yl-(4-cyclohexyl-benzyl)-amine] as the compound, how does the inhibition at 100 µM read?
Its inhibition at 100 µM is 0 to 30%.

With `OC12CC3CC(C1)CC(NCc1cc(-c4ccccc4)on1)(C3)C2` [Example 194a, (1s,3r,5R,7S)-3-(((5-phenylisoxazol-3-yl)methyl)amino)adamantan-1-ol] as the compound, how does the inhibition at 100 µM read?
Its inhibition at 100 µM is 0 to 30%.

For `O=[N+]([O-])c1ccc(CNC23CC4CC(CC(C4)C2)C3)s1` [Example 100a, N-((5-nitrothiophen-2-yl)methyl)adamantan-1-amine], which inhibition at 100 µM is on record?
The inhibition at 100 µM was 31 to 95%.

Which inhibition at 100 µM does the source give for `Brc1ccc(-c2ccc(CNC34CC5CC(CC(C5)C3)C4)s2)s1` [Example 159a, N-((5′-bromo-[2,2′-bithiophen]-5-yl)methyl)adamantan-1-amine] here?
The inhibition at 100 µM was 0 to 30%.

Which inhibition at 100 µM does the source give for `c1ccc(C2=NOC(CNC34CC5CC(CC(C5)C3)C4)C2)cc1` (centres unmarked) [Example 167a, N-((3-phenyl-4,5-dihydroisoxazol-5-yl)methyl)adamantan-1-amine] here?
Its inhibition at 100 µM is 0 to 30%.

same assay, conditions: Table 1; 100 uM; Xenopus oocytes, pH 5.5, -20 mV; read-out: S31 OOcyte Inhibition at 100 uM (%)

Which inhibition at 100 µM does the source give for `CC(=O)Nc1ccc(CNC23CC4CC(CC(C4)C2)C3)cc1` [Example 17, N-[4-(Adamantan-1-ylaminomethyl)-phenyl]-acetamide] here?
The inhibition at 100 µM was 0 to 30%.

How did the inhibition at 100 µM turn out when `c1cc2cc(CNC34CC5CC(CC(C5)C3)C4)sc2s1` [Example 79, Adamantan-1-yl-thieno[2,3-b]thiophen-2-ylmethyl-amine] was run?
The inhibition at 100 µM was 31 to 95%.

How did the inhibition at 100 µM turn out when `CC(C)(C)OC(=O)Nc1ccc(CNC23CC4CC(CC(C4)C2)C3)cc1` [Example 12, [4-(Adamantan-1-ylaminomethyl)-phenyl]carbamic acid tert-butyl ester] was run?
The inhibition at 100 µM was 0 to 30%.

With `C[S+]([O-])c1ccc(CNC23CC4CC(CC(C4)C2)C3)cc1` (centres unmarked) [Example 24, Adamantan-1-yl-(4-methanesulfinyl-benzyl)-amine] as the compound, how does the inhibition at 100 µM read?
Its inhibition at 100 µM is 0 to 30%.

For `CC(=O)Oc1ccc(CNC23CC4CC(CC(C4)C2)C3)cc1` [Example 33, Acetic acid 4-(adamantan-1-ylaminomethyl)-phenyl ester], which inhibition at 100 µM is on record?
The inhibition at 100 µM was 31 to 95%.

Which inhibition at 100 µM does the source give for `COc1ccc(CNC23CC4CC(CC(C4)C2)C3)c(OC)c1` [Example 59, Adamantan-1-yl-(2,4-dimethoxy-benzyl)-amine] here?
Its inhibition at 100 µM is 0 to 30%.

How did the inhibition at 100 µM turn out when `c1cc2cc(CNC34CC5CC(CC(C5)C3)C4)sc2o1` [Example 83, Adamantan-1-yl-thieno[2,3-b]furan-5-ylmethyl-amine] was run?
Its inhibition at 100 µM is 31 to 95%.

With `CN(CCC#N)c1ccc(CNC23CC4CC(CC(C4)C2)C3)cc1` [Example 38, 3-((4-((Adamantan-1-ylamino)methyl)phenyl)(methyl)amino)propanenitrile] as the compound, how does the inhibition at 100 µM read?
The inhibition at 100 µM was 0 to 30%.

With `Oc1cc(O)c(CNC23CC4CC(CC(C4)C2)C3)c(O)c1` [Example 70, 2-(Adamantan-1-ylaminomethyl)-benzene-1,3,5-triol] as the compound, how does the inhibition at 100 µM read?
The inhibition at 100 µM was 0 to 30%.

How did the inhibition at 100 µM turn out when `Oc1ccc(CNC2C3CC4CC(C3)CC2C4)cc1` (centres unmarked) [Example 99, 4-(Adamantan-2-ylaminomethyl)-phenol] was run?
Its inhibition at 100 µM is 31 to 95%.

Which inhibition at 100 µM does the source give for `c1ccc2nc(CNC34CC5CC(CC(C5)C3)C4)ccc2c1` [Example 98, Adamantan-1-yl-quinolin-2-ylmethyl-amine] here?
Its inhibition at 100 µM is 31 to 95%.

With `c1cc2[nH]c(CNC34CC5CC(CC(C5)C3)C4)cc2s1` [Example 80, Adamantan-1-yl-(4H-thieno[3,2-b]pyrrol-5-ylmethyl)-amine] as the compound, how does the inhibition at 100 µM read?
Its inhibition at 100 µM is 31 to 95%.

With `Fc1ccc(CNC23CC4CC(CC(C4)C2)C3)cc1` [Example 27, Adamantan-1-yl-(4-fluoro-benzyl)-amine] as the compound, how does the inhibition at 100 µM read?
The inhibition at 100 µM was 31 to 95%.

How did the inhibition at 100 µM turn out when `Oc1ccc(CNC23CC4CC(CC(C4)C2)C3)c(O)c1O` [Example 65, 4-(Adamantan-1-ylaminomethyl)-benzene-1,2,3-triol] was run?
The inhibition at 100 µM was 0 to 30%.

`CSc1ccc(CNC2C3CC4CC(C3)CC2C4)cc1` (centres unmarked) [Example 103, Adamantan-2-yl-(4-methylsulfanyl-benzyl)-amine] was tested. Which inhibition at 100 µM did it give?
The inhibition at 100 µM was 0 to 30%.

How did the inhibition at 100 µM turn out when `CC1(C)C2CCC(CNCc3ccc(O)cc3O)C1C2` (centres unmarked) [Example 114, 4-{[(6,6-Dimethyl-bicyclo[3.1.1]hept-2-ylmethyl)-amino]methyl}-benzene-1,3-diol] was run?
Its inhibition at 100 µM is 31 to 95%.

same assay, conditions: Table 3; 100 uM; Xenopus oocytes, pH 5.5, -20 mV; read-out: S31 OOcyte Inhibition at 100 uM (%)

Which inhibition at 100 µM does the source give for `COc1ccc(-c2noc(CNC34CC5CC(CC(C5)C3)C4)n2)cc1OC` [Example 35b, N-((3-(3,4-dimethoxyphenyl)-1,2,4-oxadiazol-5-yl)methyl)adamantan-1-amine] here?
Its inhibition at 100 µM is 0 to 30%.

For `Clc1ccccc1-c1cc(CNC23CC4CC(CC(C4)C2)C3)no1` [Example 45b, N-((5-(2-chlorophenyl)isoxazol-3-yl)methyl)adamantan-1-amine], which inhibition at 100 µM is on record?
The inhibition at 100 µM was 0 to 30%.

With `CCCSc1ncc(CNC23CC4CC(CC(C4)C2)C3)cn1` [Example 62b, N-((2-propylthiopyrimidin-5-yl)methyl)adamantan-1-amine] as the compound, how does the inhibition at 100 µM read?
Its inhibition at 100 µM is 0 to 30%.

With `Brc1ccccc1-c1cc(CNC23CC4CC(CC(C4)C2)C3)no1` [Example 43b, N-((5-(2-bromophenyl)isoxazol-3-yl)methyl)adamantan-1-amine] as the compound, how does the inhibition at 100 µM read?
The inhibition at 100 µM was 0 to 30%.

For `c1nc(CNC23CC4CC(CC(C4)C2)C3)sc1C1CC1` [Example 65b, Adamantan-1-yl-(5-cyclopropyl-thiazol-2-ylmethyl)-amine], which inhibition at 100 µM is on record?
Its inhibition at 100 µM is 0 to 30%.

Which inhibition at 100 µM does the source give for `CCOc1ccc(-c2ccc(CNC34CC5CC(CC(C5)C3)C4)s2)cc1` [Example 49b, N-((5-(4-Ethoxyphenyl)thiophen-2-yl)methyl)adamantan-1-amine] here?
Its inhibition at 100 µM is 0 to 30%.

For `Fc1cccc(F)c1-c1cc(CNC23CC4CC(CC(C4)C2)C3)no1` [Example 38b, N-((5-(2,6-difluorophenyl)isoxazol-3-yl)methyl)adamantan-1-amine], which inhibition at 100 µM is on record?
The inhibition at 100 µM was 0 to 30%.

Which inhibition at 100 µM does the source give for `c1csc(-c2nc(CNC34CC5CC(CC(C5)C3)C4)cs2)c1` [Example 11b, N-((2-(thiophen-2-yl)thiazol-4-yl)methyl)adamantan-1-amine] here?
Its inhibition at 100 µM is 0 to 30%.

Which inhibition at 100 µM does the source give for `Cc1ccc(-c2ccc(CNC34CC5CC(CC(C5)C3)C4)s2)o1` [Example 52b, N-((5-(5-Methylfuran-2-yl)thiophen-2-yl)methyl)adamantan-1-amine] here?
Its inhibition at 100 µM is 0 to 30%.

With `c1sc(CNC23CC4CC(CC(C4)C2)C3)cc1C1CC1` [Example 48b, N-((4-Cyclopropylthiophen-2-yl)methyl)adamantan-1-amine] as the compound, how does the inhibition at 100 µM read?
The inhibition at 100 µM was 0 to 30%.

For `COc1ncc(CNC23CC4CC(CC(C4)C2)C3)c(OC)n1` [Example 64b, N-((2,4-dimethoxypyrimidin-5-yl)methyl)adamantan-1-amine], which inhibition at 100 µM is on record?
The inhibition at 100 µM was 0 to 30%.

Which inhibition at 100 µM does the source give for `COCc1nc(CNC23CC4CC(CC(C4)C2)C3)no1` [Example 23b, N-((5-(methoxymethyl)-1,2,4-oxadiazol-3-yl)methyl)adamantan-1-amine] here?
Its inhibition at 100 µM is 0 to 30%.

How did the inhibition at 100 µM turn out when `C[Si](C)(C)c1ccc(CNC23CC4CC(CC(C4)C2)C3)s1` [Example 75b, Adamantan-1-yl-(5-trimethylsilanyl-thiophen-2-ylmethyl)-amine] was run?
The inhibition at 100 µM was 0 to 30%.

How did the inhibition at 100 µM turn out when `C1CCC(c2nc(CNC34CC5CC(CC(C5)C3)C4)no2)CC1` [Example 24b] was run?
Its inhibition at 100 µM is 31 to 95%.

With `CSc1ccccc1-c1cnc(CNC23CC4CC(CC(C4)C2)C3)s1` [Example 76b, Adamantan-1-yl-[5-(2-methylsulfanyl-phenyl)-thiazol-2-ylmethyl]-amine] as the compound, how does the inhibition at 100 µM read?
The inhibition at 100 µM was 0 to 30%.

`CSc1ccc(-c2cc(CNC34CC5CCC(CC(C5)C3)C4)no2)cc1` [Example 91b, (1S,3R,8S)—N-((5-(4-(methylthio)phenyl)isoxazol-3-yl)methyl)tricyclo[4.3.1.13,8]undecan-1-amine] was tested. Which inhibition at 100 µM did it give?
The inhibition at 100 µM was 0 to 30%.

`c1c(CNC23CC4CC(CC(C4)C2)C3)noc1C1CCCCC1` [Example 32b, N-((5-cyclohexylisoxazol-3-yl)methyl)adamantan-1-amine] was tested. Which inhibition at 100 µM did it give?
Its inhibition at 100 µM is 0 to 30%.

Which inhibition at 100 µM does the source give for `O=C(CNC12CC3CC(CC(C3)C1)C2)c1cccs1` [Example 87b, 2-(adamantan-1-ylamino)-1-(thiophen-2-yl)ethanone] here?
The inhibition at 100 µM was 31 to 95%.

`Clc1nc(CNC23CC4CC(CC(C4)C2)C3)ns1` [Example 10b, N-((5-chloro-1,2,4-thiadiazol-3-yl)methyl)adamantan-1-amine] was tested. Which inhibition at 100 µM did it give?
Its inhibition at 100 µM is 31 to 95%.
